# Laboratory results as given in patent US11613525B2 (CTXT PTY LIMITED, priority 2018, dated 2023).
# Like-named read-outs stand apart in the source and are kept apart here.
# How the values were obtained:
# [1] = target: huSTING (HAQ) (Homo sapiens (Human), UniProt Q86WV6, G230A/H232R/R293Q/R71H); experiment: THP-1 reporter cell line assay, THP-1 STING Lucia ISG cells; type: cell-based; conditions: THP-1 STING Lucia ISG cells, read-out: Cellular EC50 huSTING (HAQ)
# [2] = target: huSTING (WT) (Homo sapiens (Human), UniProt Q86WV6, H232R); experiment: THP-1 reporter cell line assay, THP-1-Dual KI-hSTING-R232 cells; type: cell-based; conditions: read-out: Cellular EC50 huSTING (WT)
# huSTING (WT), sequence (Q86WV6 whole entry H232R): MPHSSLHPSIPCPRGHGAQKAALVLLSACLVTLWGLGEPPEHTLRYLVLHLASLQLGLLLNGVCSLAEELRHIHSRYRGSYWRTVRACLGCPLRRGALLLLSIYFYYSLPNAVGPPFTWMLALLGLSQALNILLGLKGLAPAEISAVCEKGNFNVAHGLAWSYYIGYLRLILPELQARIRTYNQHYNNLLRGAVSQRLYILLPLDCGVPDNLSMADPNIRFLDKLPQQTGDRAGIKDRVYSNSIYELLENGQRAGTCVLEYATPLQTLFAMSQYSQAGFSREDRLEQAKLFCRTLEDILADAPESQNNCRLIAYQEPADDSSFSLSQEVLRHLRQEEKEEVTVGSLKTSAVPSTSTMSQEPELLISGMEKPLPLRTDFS
# [3] = modified method, top concentration 40 μM, pin tool, EnVision
# huSTING (HAQ), sequence (Q86WV6 whole entry R71H/G230A/H232R/R293Q): as the sequence (Q86WV6 whole entry H232R) above, with R71H, G230A, R293Q counted along it
Structure (SMILES),"EC50 ([1]; 24 h, top concentration 50 μM)",EC50 [2],"EC50 [1, 3]"
"CCOC(=O)c1sc2cccc(C)c2c1COc1ccc(C(N)=O)cc1 [Example 77, Ethyl 3-((4-carbamoylphenoxy)methyl)-4-methylbenzo[b]thiophene-2-carboxylate]",702 nM,3220 nM,–
"CCOC(=O)c1sc2c(F)ccc(F)c2c1COc1c(F)cc(C(N)=O)cc1F [Example 79, Ethyl 3-((4-carbamoyl-2,6-difluorophenoxy)methyl)-4,7-difluorobenzo[b]thiophene-2-carboxylate]",170 nM,474 nM,–
"CCOC(=O)c1sc2c(F)ccc(F)c2c1COc1ccc(C(N)=O)cc1 [Example 81, Ethyl 3-((4-carbamoylphenoxy)methyl)-4,7-difluorobenzo[b]thiophene-2-carboxylate]",2790 nM,20700 nM,–
"CCOC(=O)c1sc2ccc(F)c(Cl)c2c1COc1ccc(C(N)=O)cc1 [Example 83, Ethyl 3-((4-carbamoylphenoxy)methyl)-4-chloro-5-fluorobenzo[b]thiophene-2-carboxylate]",2610 nM,> 50000 nM,–
"CCOC(=O)c1sc2ccc(F)c(Cl)c2c1COc1c(F)cc(C(N)=O)cc1F [Example 85, Ethyl 3-((4-carbamoyl-2,6-difluorophenoxy)methyl)-4-chloro-5-fluorobenzo[b]thiophene-2-carboxylate]",1630 nM,> 50000 nM,–
"CCOC(=O)c1sc2cccc(Br)c2c1COc1c(F)cc(C(N)=O)cc1F [Example 89, Ethyl 4-bromo-3-((4-carbamoyl-2,6-difluorophenoxy)methyl)benzo[b]thiophene-2-carboxylate]",–,148 nM,16 nM
"CCOC(=O)c1sc2ccnc(Cl)c2c1COc1c(F)cc(C(N)=O)cc1F [Example 91, Ethyl 3-((4-carbamoyl-2,6-difluorophenoxy)methyl)-4-chlorothieno[3,2-c]pyridine-2-carboxylate]",–,862 nM,270 nM
"CCOC(=O)c1sc2c(F)ccc(Cl)c2c1COc1c(F)cc(C(N)=O)cc1F [Example 92, Ethyl 3-((4-carbamoyl-2,6-difluorophenoxy)methyl)-4-chloro-7-fluorobenzo[b]thiophene-2-carboxylate]",–,163 nM,50 nM
"CCOC(=O)c1sc2cccc(OCC)c2c1COc1c(F)cc(C(N)=O)cc1F [Example 94, Ethyl 3-((4-carbamoyl-2,6-difluorophenoxy)methyl)-4-ethoxybenzo[b]thiophene-2-carboxylate]",–,1690 nM,390 nM
"CCOC(=O)c1sc2cccc(Cl)c2c1COc1ccc(C(N)=O)c(OC)c1 [Example 97, Ethyl 3-((4-carbamoyl-3-methoxyphenoxy)methyl)-4-chlorobenzo[b]thiophene-2-carboxylate]",–,9720 nM,1430 nM
"CCOC(=O)c1sc2c(Br)ccc(Cl)c2c1COc1c(F)cc(C(N)=O)cc1F [Example 99, Ethyl 7-bromo-3-((4-carbamoyl-2,6-difluorophenoxy)methyl)-4-chlorobenzo[b]thiophene-2-carboxylate]",–,135 nM,22 nM
"CCOC(=O)c1sc2ccnc(OC)c2c1COc1c(F)cc(C(N)=O)cc1F [Example 102, Ethyl 3-((4-carbamoyl-2,6-difluorophenoxy)methyl)-4-methoxythieno[3,2-c]pyridine-2-carboxylate]",–,377 nM,53 nM
CCOC(=O)c1sc2ncnc(OC)c2c1COc1c(F)cc(C(N)=O)cc1F [Example 108],–,341 nM,344 nM
"CCOC(=O)c1sc2cccc(Cl)c2c1COc1c(F)cc(C(N)=O)cc1CO [Example 110, Ethyl 3-((4-carbamoyl-2-fluoro-6-(hydroxymethyl)phenoxy)methyl)-4-chlorobenzo[b]thiophene-2-carboxylate]",–,52 nM,13 nM
"CCOC(=O)c1sc2cccc(COC)c2c1COc1c(F)cc(C(N)=O)cc1F [Example 115, Ethyl 3-((4-carbamoyl-2,6-difluorophenoxy)methyl)-4-(methoxymethyl)benzo[b]thiophene-2-carboxylate]",–,1510 nM,635 nM
"CC(OC(=O)OC(C)(C)C)OC(=O)c1sc2cccc(Cl)c2c1COc1c(F)cc(C(N)=O)cc1F (stereo not drawn) [Example 129, 1-((tert-Butoxycarbonyl)oxy)ethyl 3-((4-carbamoyl-2,6-difluorophenoxy)methyl)-4-chlorobenzo[b]thiophene-2-carboxylate]",–,1580 nM,119 nM
"CC(C)(C)OC(=O)OCOC(=O)c1sc2cccc(Cl)c2c1COc1c(F)cc(C(N)=O)cc1F [Example 130, ((tert-Butoxycarbonyl)oxy)methyl 3-((4-carbamoyl-2,6-difluorophenoxy)methyl)-4-chlorobenzo[b]thiophene-2-carboxylate]",–,687 nM,60 nM
"CC(C)[C@H](NC(=O)OC(C)(C)C)C(=O)OCOC(=O)c1sc2cccc(Cl)c2c1COc1c(F)cc(C(N)=O)cc1F [Example 133, (((tert-Butoxycarbonyl)-L-valyl)oxy)methyl 3-((4-carbamoyl-2,6-difluorophenoxy)methyl)-4-chlorobenzo[b]thiophene-2-carboxylate]",–,806 nM,120 nM
"CC(=O)OC(C)OC(=O)c1sc2cccc(Cl)c2c1COc1c(F)cc(C(N)=O)cc1F (stereo not drawn) [Example 134, 1-Acetoxyethyl 3-((4-carbamoyl-2,6-difluorophenoxy)methyl)-4-chlorobenzo[b]thiophene-2-carboxylate]",–,217 nM,42 nM

# Results, then the compound that gave them:
"EC50 ([1]; 24 h, top concentration 50 μM)",EC50 [2],"EC50 [1, 3]",Structure (SMILES)
–,76 nM,24 nM,"CCOC(=O)c1sc2c(F)ccc(Br)c2c1COc1c(F)cc(C(N)=O)cc1F [Example 116, Ethyl 4-bromo-3-((4-carbamoyl-2,6-difluorophenoxy)methyl)-7-fluorobenzo[b]thiophene-2-carboxylate]"
–,580 nM,59 nM,"CCOC(=O)c1sc2ccnc(OC)c2c1COc1c(F)cc(C(N)=O)cc1CO [Example 121, Ethyl 3-((4-carbamoyl-2-fluoro-6-(hydroxymethyl)phenoxy)methyl)-4-methoxythieno[3,2-c]pyridine-2-carboxylate]"
–,335 nM,49 nM,"COc1cccc2sc(C(=O)OCOC(=O)C(C)(C)C)c(COc3c(F)cc(C(N)=O)cc3F)c12 [Example 123, (Pivaloyloxy)methyl 3-((4-carbamoyl-2,6-difluorophenoxy)methyl)-4-methoxybenzo[b]thiophene-2-carboxylate]"
–,1430 nM,278 nM,"CC(C)(C)C(=O)OCOC(=O)c1sc2cccc(C3CC3)c2c1COc1c(F)cc(C(N)=O)cc1F [Example 124, (Pivaloyloxy)methyl 3-((4-carbamoyl-2,6-difluorophenoxy)methyl)-4-cyclopropylbenzo[b]thiophene-2-carboxylate]"
–,529 nM,86 nM,"CCC(=O)OC(OC(=O)c1sc2cccc(Cl)c2c1COc1c(F)cc(C(N)=O)cc1F)C(C)C (stereo not drawn) [Example 125, 2-Methyl-1-(propionyloxy)propyl 3-((4-carbamoyl-2,6-difluorophenoxy)methyl)-4-chlorobenzo[b]thiophene-2-carboxylate]"
–,187 nM,39 nM,"Cc1oc(=O)oc1COC(=O)c1sc2cccc(Cl)c2c1COc1c(F)cc(C(N)=O)cc1F [Example 126, (5-Methyl-2-oxo-1,3-dioxol-4-yl)methyl 3-((4-carbamoyl-2,6-difluorophenoxy)methyl)-4-chlorobenzo[b]thiophene-2-carboxylate]"
–,210 nM,68 nM,"CC(C)(C)C(=O)OCOC(=O)c1sc2cccc(Br)c2c1COc1c(F)cc(C(N)=O)cc1F [Example 128, (Pivaloyloxy)methyl 4-bromo-3-((4-carbamoyl-2,6-difluorophenoxy)methyl)benzo[b]thiophene-2-carboxylate]"
–,57 nM,44 nM,CC(C)(C)C(=O)OCOC(=O)c1sc2c(F)ccc(Br)c2c1COc1c(F)cc(C(N)=O)cc1F [Example 131]
–,916 nM,97 nM,"CC(C)OC(=O)OC(C)OC(=O)c1sc2cccc(Cl)c2c1COc1c(F)cc(C(N)=O)cc1F (stereo not drawn) [Example 132, 1-((Isopropoxycarbonyl)oxy)ethyl 3-((4-carbamoyl-2,6-difluorophenoxy)methyl)-4-chlorobenzo[b]thiophene-2-carboxylate]"
–,334 nM,64 nM,"CC(OC(=O)c1sc2cccc(Cl)c2c1COc1c(F)cc(C(N)=O)cc1F)OC(=O)C(C)C (stereo not drawn) [Example 135, 1-(Isobutyryloxy)ethyl 3-((4-carbamoyl-2,6-difluorophenoxy)methyl)-4-chlorobenzo[b]thiophene-2-carboxylate]"
–,226 nM,21 nM,"NC(=O)c1cc(F)c(OCc2c(C(=O)OCCN3CCOCC3)sc3cccc(Cl)c23)c(F)c1 [Example 137, 2-Morpholinoethyl 3-((4-carbamoyl-2,6-difluorophenoxy)methyl)-4-chlorobenzo[b]thiophene-2-carboxylate]"
–,242 nM,14 nM,"CN(C)C(=O)OCOC(=O)c1sc2cccc(Cl)c2c1COc1c(F)cc(C(N)=O)cc1F [Example 138, ((Dimethylcarbamoyl)oxy)methyl 3-((4-carbamoyl-2,6-difluorophenoxy)methyl)-4-chlorobenzo[b]thiophene-2-carboxylate]"
–,291 nM,36 nM,"CC(=O)N[C@H](C(=O)OCOC(=O)c1sc2cccc(Cl)c2c1COc1c(F)cc(C(N)=O)cc1F)C(C)C [Example 139, ((Acetyl-L-valyl)oxy)methyl 3-((4-carbamoyl-2,6-difluorophenoxy)methyl)-4-chlorobenzo[b]thiophene-2-carboxylate]"
–,160 nM,46 nM,"CCC(=O)OC(OC(=O)c1sc2c(F)ccc(Br)c2c1COc1c(F)cc(C(N)=O)cc1F)C(C)C (stereo not drawn) [Example 140, 2-Methyl-1-(propionyloxy)propyl 4-bromo-3-((4-carbamoyl-2,6-difluorophenoxy)methyl)-7-fluorobenzo[b]thiophene-2-carboxylate]"
